Measured values: US11130741B2 (Bioimics AB, priority 2016, dated 2021)
≈ marks a conversion by molar mass, not a printed value.

Legend:
[1] = system: Escherichia coli (ATCC25922); assay: MIC, broth microdilution (CLSI), Escherichia coli ATCC25922; details: ATCC25922, read-out: E. coli MIC, Table 15, NI = No inhibition
Protocol: Initial minimal inhibitory concentration (MIC) tests were made on two bacterial strains: • Escherichia coli (ATCC25922) • Staphylococcus aureus (ATCC25923).
Minimal Inhibitory Concentration (MIC)
MIC values were determined using the standard broth microdilution procedure based on the guidelines by the Clinical and Laboratory Standards Institute (CLSI). Briefly, the compounds were dissolved in DMSO to 10 mM. They were diluted in cation-adjusted Mueller-Hinton broth (CAMHB) to four times the highest concentration tested. A serial 2-fold dilution in CAMHB was done in microdilution plates. The inoculum of bacterial strain to be tested was prepared by making a suspension of colonies from an 18 to 24 hours old plate in CAMHB. The inoculum was diluted so that, after inoculation, each well contained approximately 5×10^5 CFU/mL. To a volume of 50 μl compound in CAMHB an equal volume of inoculum was added. The tray was sealed in a plastic bag and incubated at 35° C. for 16 to 20 hours. To aid in the detection of growth the dye resazurin was added to a final concentration 0.001% and incubated at room temperature for 1 h. Reduction of resazurin, and therefore bacterial growth, was seen as a change from blue to pink.

[2] = system: Staphylococcus aureus (ATCC25923); assay: MIC, broth microdilution (CLSI), Staphylococcus aureus ATCC25923; details: ATCC25923, read-out: S. aureus ("Clinical") MIC
[3] = system: E. coli RNase P RNA, M1 RNA; assay: Inhibition of bacterial RNase P activity, IC50 determination (cleavage of pATSerUG by M1 RNA); format: biochemical; details: NI = No inhibition

## NC1CCCC(CC(=O)Nc2cc(C(F)(F)F)cc3c2Nc2ccccc2S3)C1 (stereo not drawn) [compound 167, 2-(3-aminocyclohexyl)-N-(3-(trifluoromethyl)-10H-phenothiazin-1-yl)acetamide]
[1]
  MIC: 27 µg/mL (≈ 64.1 µM)
[2]
  MIC: 13 µg/mL (≈ 30.8 µM)
[3]
  IC50: > 100 µM

## FC(F)(F)c1cc(NC2CCNCC2)c2c(c1)Oc1ccccc1N2 [compound 169, N-(piperidin-4-yl)-3-(trifluoromethyl)-10H-phenoxazin-1-amine]
[1]
  MIC: 45 µg/mL (≈ 129 µM)
[2]
  MIC: 11 µg/mL (≈ 31.5 µM)
[3]
  IC50: 36 µM

## NC1CC(N)CC(C(=O)Nc2cc(C(F)(F)F)cc3c2Nc2ccccc2S3)C1 (stereo not drawn) [compound 170, 3,5-diamino-N-(3-(trifluoromethyl)-10H-phenothiazin-1-yl)cyclohexane-carboxamide]
[1]
  MIC: 7 µg/mL (≈ 16.6 µM)
[2]
  MIC: 3 µg/mL (≈ 7.1 µM)
[3]
  IC50: 59 µM

## N[C@@H]1CCC[C@@H](CNc2cc(C(F)(F)F)cc3c2Nc2ccccc2S3)C1 [compound 171, N-(((1R,3R)-3-aminocyclohexyl)methyl)-3-(trifluoromethyl)-10H-phenothiazin-1-amine]
[1]
  MIC: 13 µg/mL (≈ 33 µM)
[2]
  MIC: 3 µg/mL (≈ 7.62 µM)
[3]
  IC50: 42 µM

## FC(F)(F)c1cc(NC2CCCNC2)c2c(c1)Sc1ccccc1N2 (stereo not drawn) [compound 172, N-(piperidin-3-yl)-3-(trifluoromethyl)-10H-phenothiazin-1-amine]
[1]
  MIC: 23 µg/mL (≈ 62.9 µM)
[2]
  MIC: 6 µg/mL (≈ 16.4 µM)
[3]
  IC50: 27 µM

## FC(F)(F)c1cc(NCC2CCNCC2)c2c(c1)Sc1ccccc1N2 [compound 173, N-(piperidin-4-ylmethyl)-3-(trifluoromethyl)-10H-phenothiazin-1-amine]
[1]
  MIC: > 100 µg/mL
[2]
  MIC: 24 µg/mL (≈ 63.2 µM)
[3]
  IC50: 59 µM

## FC(F)(F)c1cc(NC2CCNC2)c2c(c1)Sc1ccccc1N2 (stereo not drawn) [compound 174, N-(pyrrolidin-3-yl)-3-(trifluoromethyl)-10H-phenothiazin-1-amine]
[1]
  MIC: 11 µg/mL (≈ 31.3 µM)
[2]
  MIC: 3 µg/mL (≈ 8.54 µM)
[3]
  IC50: 50 µM

## NC1CC(C(=O)Nc2cc(C(F)(F)F)cc3c2Nc2ccccc2S3)C1 (stereo not drawn) [compound 175, 3-amino-N-(3-(trifluoromethyl)-10H-phenothiazin-1-yl)cyclobutane-carboxamide]
[1]
  MIC: 49 µg/mL (≈ 129 µM)
[2]
  MIC: 24 µg/mL (≈ 63.3 µM)
[3]
  IC50: 80 µM

## NC1CCC(Nc2cc(C(F)(F)F)cc3c2Nc2ccccc2S3)CC1 (stereo not drawn) [compound 180, N1-(3-(trifluoromethyl)-10H-phenothiazin-1-yl)cyclohexane-1,4-diamine]
[1]
  MIC: 14 µg/mL (≈ 36.9 µM)
[2]
  MIC: 7 µg/mL (≈ 18.4 µM)
[3]
  IC50: 87 µM

## CN(C)CCCN1c2ccccc2Sc2cc(-c3cc4cc(CN)ccc4[nH]3)ccc21 [compound 181, 3-(3-(5-(aminomethyl)-1H-indol-2-yl)-10H-phenothiazin-10-yl)-N,N-dimethylpropan-1-amine]
[1]
  MIC: 27 µg/mL (≈ 63 µM)
[2]
  MIC: 7 µg/mL (≈ 16.3 µM)
[3]
  IC50: > 100 µM

## N[C@H]1CCC[C@@H](CNc2cc(C(F)(F)F)cc3c2Nc2ccccc2S3)C1 [compound 182, N-(((1R,3S)-3-aminocyclohexyl)methyl)-3-(trifluoromethyl)-10H-phenothiazin-1-amine]
[1]
  MIC: 25 µg/mL (≈ 63.5 µM)
[2]
  MIC: 3 µg/mL (≈ 7.62 µM)
[3]
  IC50: 61 µM

## Clc1cc(NC2CCNCC2)c2c(c1)Sc1ccccc1N2 [compound 184, 3-chloro-N-(piperidin-4-yl)-10H-phenothiazin-1-amine]
[1]
  MIC: 21 µg/mL (≈ 63.3 µM)
[2]
  MIC: 5 µg/mL (≈ 15.1 µM)
[3]
  IC50: 11 µM

## N[C@H]1CCC[C@H](CNc2cc(C(F)(F)F)cc3c2Nc2ccccc2S3)C1.O=C(O)C(F)(F)F [compound 187, N-(((1S,3S)-3-aminocyclohexyl)methyl)-3-(trifluoromethyl)-10H-phenothiazin-1-amine 2,2,2-trifluoroacetate]
[1]
  MIC: 16 µg/mL
[2]
  MIC: 4 µg/mL
[3]
  IC50: 53 µM

## O=C(Nc1cc(C(F)(F)F)cc2c1Nc1ccccc1S2)C1CNC1 [compound 188, N-(3-(trifluoromethyl)-10H-phenothiazin-1-yl)azetidine-3-carboxamide]
[1]
  MIC: 23 µg/mL (≈ 62.9 µM)
[2]
  MIC: 12 µg/mL (≈ 32.8 µM)
[3]
  IC50: > 100 µM

## NC[C@H]1CCC[C@H](CNc2cc(C(F)(F)F)cc3c2Nc2ccccc2S3)C1 [compound 189, N-(((1S,3S)-3-(aminomethyl)cyclohexyl)methyl)-3-(trifluoromethyl)-10H-phenothiazin-1-amine]
[1]
  MIC: 52 µg/mL (≈ 128 µM)
[2]
  MIC: 3 µg/mL (≈ 7.36 µM)
[3]
  IC50: > 100 µM

## CC(Nc1cc(C(F)(F)F)cc2c1Nc1ccccc1S2)C1CCCC(N)C1 (stereo not drawn) [compound 190, N-(1-(3-aminocyclohexyl)ethyl)-3-(trifluoromethyl)-10H-phenothiazin-1-amine]
[1]
  MIC: 26 µg/mL (≈ 63.8 µM)
[2]
  MIC: 3 µg/mL (≈ 7.36 µM)
[3]
  IC50: 82 µM

## NC1CCCC(c2nc3cc(C(F)(F)F)cc4c3n2-c2ccccc2S4)C1 (stereo not drawn) [compound 191, 3-(4-(trifluoromethyl)imidazo[4,5,1-kl]phenothiazin-1-yl)cyclohexan-amine]
[1]
  MIC: 50 µg/mL (≈ 128 µM)
[2]
  MIC: 6 µg/mL (≈ 15.4 µM)
[3]
  IC50: 19 µM

## FC(F)(F)c1cc(NC2CNC2)c2c(c1)Sc1ccccc1N2 [compound 193, N-(azetidin-3-yl)-3-(trifluoromethyl)-10H-phenothiazin-1-amine]
[1]
  MIC: 22 µg/mL (≈ 65.2 µM)
[2]
  MIC: 5 µg/mL (≈ 14.8 µM)
[3]
  IC50: 180 µM

## NCCN1CC(C(=O)Nc2cc(C(F)(F)F)cc3c2Nc2ccccc2S3)C1 [compound 196]
[1]
  MIC: 52 µg/mL (≈ 127 µM)
[2]
  MIC: 26 µg/mL (≈ 63.7 µM)
[3]
  IC50: > 100 µM

## NCCN1CCC(C(=O)Nc2cc(C(F)(F)F)cc3c2Nc2ccccc2S3)CC1 [compound 199]
[1]
  MIC: 28 µg/mL (≈ 64.1 µM)
[2]
  MIC: 28 µg/mL (≈ 64.1 µM)
[3]
  IC50: 65 µM

## NCCN1CCCC(C(=O)Nc2cc(C(F)(F)F)cc3c2Nc2ccccc2S3)C1 (stereo not drawn) [compound 203]
[1]
  MIC: 14 µg/mL (≈ 32.1 µM)
[2]
  MIC: 14 µg/mL (≈ 32.1 µM)
[3]
  IC50: 4 µM

## NC1CCCC(Nc2cc(C(F)(F)F)cc3c2Nc2ccccc2S3)C1 (stereo not drawn) [compound 204, N1-(3-(trifluoromethyl)-10H-phenothiazin-1-yl)cyclohexane-1,3-diamine]
[1]
  MIC: 12 µg/mL (≈ 31.6 µM)
[2]
  MIC: 3 µg/mL (≈ 7.91 µM)
[3]
  IC50: 8 µM

## NCCN1CCC(Nc2cc(C(F)(F)F)cc3c2Nc2ccccc2O3)CC1 [compound 206, N-(1-(2-aminoethyl)piperidin-4-yl)-3-(trifluoromethyl)-10H-phenoxazin-1-amine]
[1]
  MIC: 50 µg/mL (≈ 127 µM)
[2]
  MIC: 25 µg/mL (≈ 63.7 µM)
[3]
  IC50: 89 µM

## O=C(Nc1cc(C(F)(F)F)cc2c1Nc1ccccc1S2)C1CCNCC1 [compound 207, N-(3-(trifluoromethyl)-10H-phenothiazin-1-yl)piperidine-4-carboxamide]
[1]
  MIC: 50 µg/mL (≈ 127 µM)
[2]
  MIC: 25 µg/mL (≈ 63.5 µM)
[3]
  IC50: 109 µM

## NCCN1CC(Nc2cc(C(F)(F)F)cc3c2Nc2ccccc2S3)C1 [compound 208, N-(1-(2-aminoethyl)azetidin-3-yl)-3-(trifluoromethyl)-10H-phenothiazin-1-amine]
[1]
  MIC: 24 µg/mL (≈ 63.1 µM)
[2]
  MIC: 12 µg/mL (≈ 31.5 µM)
[3]
  IC50: 258 µM

## NNC(=O)c1cc(NC2CCNCC2)c2c(c1)Sc1ccccc1N2.O=C(O)C(F)(F)F [compound 210, 1-(piperidin-4-ylamino)-10H-phenothiazine-3-carbohydrazide 2,2,2-trifluoroacetate salt]
[1]
  MIC: > 100 µg/mL
[2]
  MIC: 60 µg/mL
[3]
  IC50: 95 µM

## FC(F)(F)c1cc(NC2CCNCC2)c2c(c1)Sc1cc(-c3cc4ccccc4[nH]3)ccc1N2.O=C(O)C(F)(F)F [compound 212, 7-(1H-indol-2-yl)-N-(piperidin-4-yl)-3-(trifluoromethyl)-10H-phenothiazin-1-amine trifluoroacetic Acid Salt]
[1]
  MIC: > 100 µg/mL
[2]
  MIC: 19 µg/mL
[3]; trifluoroacetic Acid Salt
  IC50: 5 µM

## NCCN1CCC(Nc2cc(Cl)cc3c2Nc2ccccc2S3)CC1 [compound 214, N-(1-(2-aminoethyl)piperidin-4-yl)-3-chloro-10H-phenothiazin-1-amine]
[1]
  MIC: 24 µg/mL (≈ 64 µM)
[2]
  MIC: 12 µg/mL (≈ 32 µM)
[3]
  IC50: > 100 µM

## N#Cc1cc(NC2CCN(CCN)CC2)c2c(c1)Sc1ccccc1N2 [compound 215, 1-((1-(2-aminoethyl)piperidin-4-yl)amino)-10H-phenothiazine-3-carbonitrile]
[1]
  MIC: 47 µg/mL (≈ 129 µM)
[2]
  MIC: 23 µg/mL (≈ 62.9 µM)
[3]
  IC50: > 100 µM

## NCCN(CCN)CCN1CCC(Nc2cc(C(F)(F)F)cc3c2Nc2ccccc2S3)CC1.O=C(O)C(F)(F)F [compound 216, N1-(2-aminoethyl)-N1-(2-(4-((3-(trifluoromethyl)-10H-phenothiazin-1-yl)amino)piperidin-1-yl)ethyl)ethane-1,2-diamine 2,2,2-trifluoroacetate salt]
[1]
  MIC: 19 µg/mL
[2]
  MIC: 5 µg/mL
[3]
  IC50: 5 µM

## CN1c2ccccc2Sc2cc(C(F)(F)F)cc(NC3CCN(CCN)CC3)c21 [compound 218, N-(1-(2-aminoethyl)piperidin-4-yl)-10-methyl-3-(trifluoromethyl)-10H-phenothiazin-1-amine]
[1]
  MIC: 7 µg/mL (≈ 16.6 µM)
[2]
  MIC: 7 µg/mL (≈ 16.6 µM)
[3]
  IC50: 68 µM

## NCCN1CCCC(CNc2cc(C(F)(F)F)cc3c2Nc2ccccc2S3)C1 (stereo not drawn) [compound 220, N-((1-(2-aminoethyl)piperidin-3-yl)methyl)-3-(trifluoromethyl)-10H-phenothiazin-1-amine]
[1]
  MIC: 7 µg/mL (≈ 16.6 µM)
[2]
  MIC: 7 µg/mL (≈ 16.6 µM)
[3]
  IC50: > 100 µM

## FC(F)(F)c1cc(NC2CCCNCC2)c2c(c1)Sc1ccccc1N2 (stereo not drawn) [compound 221, N-(azepan-4-yl)-3-(trifluoromethyl)-10H-phenothiazin-1-amine]
[1]
  MIC: 24 µg/mL (≈ 63.2 µM)
[2]
  MIC: 6 µg/mL (≈ 15.8 µM)
[3]
  IC50: > 100 µM

## NCCCN1c2ccccc2Sc2cc(-c3cc4ccccc4n3CCN)ccc21.O=C(O)C(F)(F)F.O=C(O)C(F)(F)F [compound 222, 3-(3-(1-(2-aminoethyl)-1H-indol-2-yl)-10H-phenothiazin-10-yl)propan-1-amine bis(2,2,2-trifluoroacetate) salt]
[1]
  MIC: 5 µg/mL
[2]
  MIC: 3 µg/mL
[3]
  IC50: 18 µM

## FC(F)(F)c1cc(NC2CCNCC2)c2c(c1)Sc1cc(Cl)ccc1N2 [compound 223, 7-chloro-N-(piperidin-4-yl)-3-(trifluoromethyl)-10H-phenothiazin-1-amine]
[1]
  MIC: 6 µg/mL (≈ 15 µM)
[2]
  MIC: 3 µg/mL (≈ 7.5 µM)
[3]
  IC50: 24 µM
